Laboratory results published in patent US9649314B2, “Pyrimido[4,5-b]quinoline-4,5(3H,10H)-diones” (NOVARTIS AG, priority 2012, dated 2017).
Like-named read-outs stand apart in the source and are kept apart here.

Tested on: CFTR-Y122X
Assay: CFTR-Y122X assay (dual reporter isogenic Hek293 cell lines, Renilla luminescence readthrough)
Format: cell-based
Settings: Homo sapiens, HEK293; for Emax at 100 µM: measured at 100 μM compound concentration (footnote d)
Source text: Activity of compounds of the present invention was examined in recombinant, dual reporter isogenic Hek293 cell lines (“CFTR-Y122X assay”). The engineered reporter constructs contained the 18 bp sequence stretch corresponding to a common Y122X PTC mutation in CFTR class I mutant patients (see Sermet-Gaudelus, BMC Medicine, 2007, 5(5)). Instead of a tyrosine (Y) in position 122 of the CFTR protein a TGA stop codon interrupts the open reading frame (Y122X) of the corresponding mRNA. This TGA stop codon triplet (followed by the pyrimidine base cytosine) is permissive to aminoglycoside mediated translational readthrough which served as positive control for high throughput screening. A corresponding TAA stop codon variant and a wildtype non mutated construct was used for confirmation and counter screening. The CFTR sequence was sandwiched between an eGFP reporter, and a triple myc tag sequence fused to a full length Renilla reporter. All sequences, including an intron containing one positioned pre-eGFP (b-globin intron) were cloned in frame. The corresponding expression constructs were stably expressed in the isogenic HEK-R4 cell host (Invitrogen Incorp.) and selected by blasticidin resistance. The isogenic integration of the construct minimizes gene dose effects and improves assay reproducibility. Stably integrated single cell derived clones were selected and characterized for aminoglycoside mediated readthrough. […] Readthrough of Y122X accumulates an intracellular localized fusion protein approximately 65.5 kDa in size as controlled by western blot analysis and immunofluorescence using an anti-renilla antibody. The eGFP reporter pre-PTC mutation serves as visual control for genetic stability of the screening clones and minimizes protein degradation of small fusion protein amounts. In the assay, compound concentration was 10 μM. In miniaturized 1536 well format 2000 cells were dispensed in 4 μl/well and incubated for 24 h at 37° C., 5% CO2. 40 nl compounds were placed on the cells with control wells containing 1 ul Paramomycin and 14.4 mM final concentration. Compounds were incubated for 24 h. Renilla Glo substrate (2.5 ul) was added and plates were centrifuged and processed for luminescence measurement using various readers. Activity calculation was done using the equation: A1 (%)=100*(S−NC)/(AC−NC) where AC, NC and S correspond to active controls (injection of Stimulation buffer=100% stimulation), neutral controls (buffer injection which Iloprost EC10) and screening samples (S). NC corresponds to 0% activity whereas AC is 100% activity (14 mM paromomycin). False positive artefacts were removed in confirmation and validation screening using the same assay format followed by counterscreening using the respective wildtype construct (w/o PTC mutation) cell model. Compounds were tested up to 100 μM compound concentration.

[1] = nonsense mutation suppression, 100% = 14 mM paromomycin, 24 h incubation, tested up to 100 μM, read-out: Amax [%]
[2] = read-out: Amax [%]: % nonsense mutation suppression relative to paromomycin reference activity
[3] = nonsense mutation suppression, 24 h incubation
[4] = at the above dose ranges (up to 100 μM), read-out: suppression, % of paromomycin reference activity

Compound	Emax [1] [%]	AC50 [3] [µM]	further results
Cn1c2ccccc2c(=O)c2c(=O)n(C3CCCCC3)c(-c3ccc(Cl)cc3)nc21 [Example 2.44, 2-(4-chlorophenyl)-3-cyclohexyl-10-methylpyrimido[4,5-b]quinoline-4,5(3H,10H)-dione]	16	–	–
Cn1c2ccccc2c(=O)c2c(=O)n(C3CCCC3)c(-c3ccccc3F)nc21 [Example 2.32, 3-cyclopentyl-2-(2-fluorophenyl)-10-methylpyrimido[4,5-b]quinoline-4,5(3H,10H)-dione]	–	–	Emax at 100 µM [2]: 43%
Cn1c2ccccc2c(=O)c2c(=O)n(C3CCCCC3)c(-c3ccccc3F)nc21 [Example 2.41, 3-cyclohexyl-2-(2-fluorophenyl)-10-methylpyrimido[4,5-b]quinoline-4,5(3H,10H)-dione]	18	4.9	–
COCCn1c2ccccc2c(=O)c2c(=O)n(-c3ccccc3)c(C(C)C)nc21 [Example 1.43, 2-isopropyl-10-(2-methoxyethyl)-3-phenylpyrimido[4,5-b]quinoline-4,5(3H,10H)-dione]	9	–	–
Cc1cc(C)cc(-n2c(C(C)C)nc3c(c(=O)c4ccccc4n3C)c2=O)c1 [Example 1.35, 3-(3,5-dimethylphenyl)-2-isopropyl-10-methylpyrimido[4,5-b]quinoline-4,5(3H,10H)-dione]	13	1.5	–
CCCCCc1nc2c(c(=O)c3ccccc3n2C)c(=O)n1C1CCCC1 [Example 2.18, 3-cyclopentyl-10-methyl-2-pentylpyrimido[4,5-b]quinoline-4,5(3H,10H)-dione]	222	9.9	–
CCCCCc1nc2c(c(=O)c3ccccc3n2C)c(=O)n1-c1ccccc1 [Example 1.29, 10-methyl-2-pentyl-3-phenylpyrimido[4,5-b]quinoline-4,5(3H,10H)-dione]	336	7.1	–
Cn1c2ccccc2c(=O)c2c(=O)n(C3CCCCCC3)c(-c3ccccc3F)nc21 [3-cycloheptyl-2-(2-fluorophenyl)-10-methylpyrimido[4,5-b]quinoline-4,5(3H,10H)-dione]	–	–	Emax [4]: < 5%
COCCCCc1nc2c(c(=O)c3ccccc3n2C)c(=O)n1-c1ccccc1 [Example 1.14, 2-(4-methoxybutyl)-10-methyl-3-phenylpyrimido[4,5-b]quinoline-4,5(3H,10H)-dione]	18	–	–
COc1cccc2c(=O)c3c(=O)n(C4CCCC4)c(C(C)C)nc3n(C)c12 [Example 2.9, 3-cyclopentyl-2-isopropyl-9-methoxy-10-methylpyrimido[4,5-b]quinoline-4,5(3H,10H)-dione]	73	18.4	–
C=CCn1c2ccccc2c(=O)c2c(=O)n(C3CCCC3)c(C(C)C)nc21 [Example 2.1, 10-allyl-3-cyclopentyl-2-isopropylpyrimido[4,5-b]quinoline-4,5(3H,10H)-dione]	102	21	–
Cn1c2ccccc2c(=O)c2c(=O)n(C3CCCC3)c(C3CCCCC3)nc21 [Example 2.28, 2-cyclohexyl-3-cyclopentyl-10-methylpyrimido[4,5-b]quinoline-4,5(3H,10H)-dione]	89	15.1	–
CC(C)c1nc2c(c(=O)c3ccccc3n2C)c(=O)n1C1CCOCC1 [Example 2.7, 2-isopropyl-10-methyl-3-(tetrahydro-2H-pyran-4-yl)pyrimido[4,5-b]quinoline-4,5(3H,10H)-dione]	–	–	Emax at 25 µM (measured at 25 μM compound concentration (footnote a), read-out: Amax [%]: % nonsense mutation suppression relative to paromomycin reference activity): 151%
CCCCCCc1nc2c(c(=O)c3ccccc3n2C)c(=O)n1-c1ccccc1 [Example 1.47, 2-hexyl-10-methyl-3-phenylpyrimido[4,5-b]quinoline-4,5(3H,10H)-dione]	210	11.3	–
Cn1c2ccccc2c(=O)c2c(=O)n(C3CCCCC3)c(-c3ccc(Cl)cc3Cl)nc21 [3-cyclohexyl-2-(2,4-dichlorophenyl)-10-methylpyrimido[4,5-b]quinoline-4,5(3H,10H)-dione]	–	–	Emax [4]: < 5%
CC(C)c1nc2c(c(=O)c3ccccc3n2CCN)c(=O)n1-c1ccccc1 [Example 1.41, 10-(2-aminoethyl)-2-isopropyl-3-phenylpyrimido[4,5-b]quinoline-4,5(3H,10H)-dione]	198	19.5	–
CC(C)c1nc2c(c(=O)c3cc(Br)ccc3n2C)c(=O)n1-c1ccccc1 [Example 1.25, 7-bromo-2-isopropyl-10-methyl-3-phenylpyrimido[4,5-b]quinoline-4,5(3H,10H)-dione]	68	19.5	–
Cc1ccccc1-c1nc2c(c(=O)c3ccccc3n2C)c(=O)n1C1CCCCCC1 [Example 2.48, 3-cycloheptyl-10-methyl-2-(o-tolyl)pyrimido[4,5-b]quinoline-4,5(3H,10H)-dione]	–	–	Emax at 100 µM [2]: 7%
Cc1ccccc1-c1nc2c(c(=O)c3ccccc3n2C)c(=O)n1C1CCCCC1 [Example 2.37, 3-cyclohexyl-10-methyl-2-(o-tolyl)pyrimido[4,5-b]quinoline-4,5(3H,10H)-dione]	–	–	Emax at 100 µM [2]: 28%
COCCCc1nc2c(c(=O)c3ccccc3n2C)c(=O)n1-c1ccccc1 [Example 1.13, 2-(3-methoxypropyl)-10-methyl-3-phenylpyrimido[4,5-b]quinoline-4,5(3H,10H)-dione]	13	–	–
Cn1c2ccccc2c(=O)c2c(=O)n(C3CCCCC3)c(-c3ccccc3Cl)nc21 [Example 2.38, 2-(2-chlorophenyl)-3-cyclohexyl-10-methylpyrimido[4,5-b]quinoline-4,5(3H,10H)-dione]	21	10	–
Cn1c2ccccc2c(=O)c2c(=O)n(-c3c(Cl)cccc3Cl)c(C3CCC3)nc21 [Example 1.46, 2-cyclobutyl-3-(2,6-dichlorophenyl)-10-methylpyrimido[4,5-b]quinoline-4,5(3H,10H)-dione]	25	–	–
Cc1ccc(-c2nc3c(c(=O)c4ccccc4n3C)c(=O)n2C2CCCC2)cc1 [Example 2.40, 3-cyclopentyl-10-methyl-2-(p-tolyl)pyrimido[4,5-b]quinoline-4,5(3H,10H)-dione]	20	6.7	–
Cn1c2ccccc2c(=O)c2c(=O)n(C3CCCCCC3)c(-c3ccc(Cl)cc3Cl)nc21 [3-cycloheptyl-2-(2,4-dichlorophenyl)-10-methylpyrimido[4,5-b]quinoline-4,5(3H,10H)-dione]	–	–	Emax [4]: < 5%
CCCc1nc2c(c(=O)c3ccccc3n2C)c(=O)n1-c1cc(C)cc(C)c1 [Example 1.36, 3-(3,5-dimethylphenyl)-10-methyl-2-propylpyrimido[4,5-b]quinoline-4,5(3H,10H)-dione]	9	1	–
CN(C)c1nc2c(c(=O)c3ccccc3n2C)c(=O)n1-c1ccccc1 [Example 3.3, 2-(dimethylamino)-10-methyl-3-phenylpyrimido[4,5-b]quinoline-4,5(3H,10H)-dione]	18	3.5	–
Cn1c2ccccc2c(=O)c2c(=O)n(-c3ccccc3)c(C3CCCCC3)nc21 [Example 1.32, 2-cyclohexyl-10-methyl-3-phenylpyrimido[4,5-b]quinoline-4,5(3H,10H)-dione]	38	–	–
CC(C)c1nc2c(c(=O)c3ccccc3n2C)c(=O)n1-c1ccccc1C(F)(F)F [Example 1.20, 2-isopropyl-10-methyl-3-(2-(trifluoromethyl)phenyl)pyrimido[4,5-b]quinoline-4,5(3H,10H)-dione]	65	13.8	–
